Measured values published in patent US20240182487A1, “MACROCYCLES AND THEIR USE” (BLOSSOMHILL THERAPEUTICS, INC., priority 2020, published 2024).

Assays:
Type in all cases: biochemical
EGFR L858R mutant = EGFR L858R mutant (Homo sapiens (Human), UniProt P00533, L858R); assay: HotSpot radiometric kinase assay, EGFR L858R; conditions: radiometric filter-binding, 10 μM ATP
EGFR L858R/C797S mutant = EGFR L858R/C797S mutant (Homo sapiens (Human), UniProt P00533, C797S/L858R); assay: HotSpot radiometric kinase assay, EGFR L858R/C797S; conditions: radiometric filter-binding, 10 μM ATP
Chain of EGFR L858R/C797S mutant (P00533 25-1210 C797S/L858R): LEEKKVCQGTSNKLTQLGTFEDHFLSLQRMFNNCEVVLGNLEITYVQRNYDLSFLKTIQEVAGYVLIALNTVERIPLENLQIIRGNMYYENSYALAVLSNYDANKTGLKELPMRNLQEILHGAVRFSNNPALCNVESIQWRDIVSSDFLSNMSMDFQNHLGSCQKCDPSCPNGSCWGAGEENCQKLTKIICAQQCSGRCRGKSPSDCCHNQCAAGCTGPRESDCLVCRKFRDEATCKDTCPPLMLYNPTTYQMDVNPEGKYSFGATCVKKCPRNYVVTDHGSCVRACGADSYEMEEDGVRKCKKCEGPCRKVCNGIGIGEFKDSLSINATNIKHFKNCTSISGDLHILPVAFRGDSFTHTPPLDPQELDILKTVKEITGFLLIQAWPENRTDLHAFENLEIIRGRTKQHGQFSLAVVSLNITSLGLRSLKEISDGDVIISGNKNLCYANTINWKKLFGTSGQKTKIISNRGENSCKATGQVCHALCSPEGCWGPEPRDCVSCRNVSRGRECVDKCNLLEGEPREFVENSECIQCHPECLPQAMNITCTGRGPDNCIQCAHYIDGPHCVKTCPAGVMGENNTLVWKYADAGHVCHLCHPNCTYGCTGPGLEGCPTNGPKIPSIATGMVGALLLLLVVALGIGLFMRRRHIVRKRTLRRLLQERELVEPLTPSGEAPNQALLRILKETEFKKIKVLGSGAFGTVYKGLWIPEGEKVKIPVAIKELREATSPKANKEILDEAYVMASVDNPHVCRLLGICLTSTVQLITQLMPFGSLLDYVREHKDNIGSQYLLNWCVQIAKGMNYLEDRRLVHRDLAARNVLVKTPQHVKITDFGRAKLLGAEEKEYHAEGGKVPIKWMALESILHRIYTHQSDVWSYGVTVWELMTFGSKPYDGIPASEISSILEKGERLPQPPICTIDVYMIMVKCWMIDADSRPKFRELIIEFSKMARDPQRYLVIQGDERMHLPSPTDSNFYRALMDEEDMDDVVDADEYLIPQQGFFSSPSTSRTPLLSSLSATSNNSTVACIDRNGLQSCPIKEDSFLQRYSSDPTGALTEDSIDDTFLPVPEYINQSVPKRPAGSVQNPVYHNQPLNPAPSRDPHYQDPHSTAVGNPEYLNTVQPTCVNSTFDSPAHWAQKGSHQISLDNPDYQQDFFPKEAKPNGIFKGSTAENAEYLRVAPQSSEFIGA

EGFR L858R/T790M mutant = EGFR L858R/T790M mutant (Homo sapiens (Human), UniProt P00533, L858R/T790M); assay: HotSpot radiometric kinase assay, EGFR L858R/T790M; conditions: radiometric filter-binding, 10 μM ATP; read-out: EGFR (L858R/T790M)_IC50
Chain of EGFR L858R/T790M mutant (P00533 25-1210 T790M/L858R): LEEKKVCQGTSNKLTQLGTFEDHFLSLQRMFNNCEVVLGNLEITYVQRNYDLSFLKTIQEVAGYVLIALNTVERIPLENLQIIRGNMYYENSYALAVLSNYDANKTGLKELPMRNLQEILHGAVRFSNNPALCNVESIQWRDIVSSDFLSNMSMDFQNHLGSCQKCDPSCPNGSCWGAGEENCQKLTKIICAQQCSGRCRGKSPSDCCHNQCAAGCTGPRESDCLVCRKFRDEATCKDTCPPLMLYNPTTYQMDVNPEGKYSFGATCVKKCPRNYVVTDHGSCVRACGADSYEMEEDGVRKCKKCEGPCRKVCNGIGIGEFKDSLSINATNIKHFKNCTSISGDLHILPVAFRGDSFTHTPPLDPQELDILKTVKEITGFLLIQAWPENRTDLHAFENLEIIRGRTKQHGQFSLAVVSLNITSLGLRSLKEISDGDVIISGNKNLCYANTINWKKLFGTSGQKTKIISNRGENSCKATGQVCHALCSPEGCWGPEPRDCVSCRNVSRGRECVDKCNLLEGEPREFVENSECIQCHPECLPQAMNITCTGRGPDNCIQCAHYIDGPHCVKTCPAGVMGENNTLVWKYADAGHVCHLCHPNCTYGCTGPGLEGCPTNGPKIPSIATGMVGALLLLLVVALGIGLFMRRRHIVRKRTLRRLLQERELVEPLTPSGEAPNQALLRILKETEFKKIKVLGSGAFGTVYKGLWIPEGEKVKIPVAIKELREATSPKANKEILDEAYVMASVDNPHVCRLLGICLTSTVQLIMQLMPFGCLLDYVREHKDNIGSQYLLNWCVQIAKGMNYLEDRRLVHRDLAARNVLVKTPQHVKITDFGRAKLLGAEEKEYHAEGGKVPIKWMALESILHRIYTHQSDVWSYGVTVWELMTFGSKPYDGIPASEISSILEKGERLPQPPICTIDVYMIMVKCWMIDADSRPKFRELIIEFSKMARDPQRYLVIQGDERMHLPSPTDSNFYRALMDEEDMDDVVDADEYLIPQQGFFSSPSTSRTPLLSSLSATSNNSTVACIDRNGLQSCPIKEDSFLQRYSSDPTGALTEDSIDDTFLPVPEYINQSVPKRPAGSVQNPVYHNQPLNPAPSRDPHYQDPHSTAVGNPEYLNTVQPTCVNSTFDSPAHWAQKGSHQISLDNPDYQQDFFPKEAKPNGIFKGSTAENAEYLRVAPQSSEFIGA

[1] = biological target: EGFR L858R/T790M/C797S mutant (Homo sapiens (Human), UniProt P00533, C797S/L858R/T790M); assay: HotSpot radiometric kinase assay, EGFR L858R/T790M/C797S; conditions: radiometric filter-binding, 10 μM ATP; read-out: EGFR (L858R/T790M/C797S/)_IC50
EGFR (Δ746-750) = EGFR (Δ746-750) (Homo sapiens (Human), UniProt P00533, DEL746-750); assay: HotSpot radiometric kinase assay, EGFR Δ746-750; conditions: radiometric filter-binding, 10 μM ATP
Chain of EGFR (Δ746-750) (P00533 other isoform, or with tags, fused parts or gaps del 1-668/del 746-750 limits assumed): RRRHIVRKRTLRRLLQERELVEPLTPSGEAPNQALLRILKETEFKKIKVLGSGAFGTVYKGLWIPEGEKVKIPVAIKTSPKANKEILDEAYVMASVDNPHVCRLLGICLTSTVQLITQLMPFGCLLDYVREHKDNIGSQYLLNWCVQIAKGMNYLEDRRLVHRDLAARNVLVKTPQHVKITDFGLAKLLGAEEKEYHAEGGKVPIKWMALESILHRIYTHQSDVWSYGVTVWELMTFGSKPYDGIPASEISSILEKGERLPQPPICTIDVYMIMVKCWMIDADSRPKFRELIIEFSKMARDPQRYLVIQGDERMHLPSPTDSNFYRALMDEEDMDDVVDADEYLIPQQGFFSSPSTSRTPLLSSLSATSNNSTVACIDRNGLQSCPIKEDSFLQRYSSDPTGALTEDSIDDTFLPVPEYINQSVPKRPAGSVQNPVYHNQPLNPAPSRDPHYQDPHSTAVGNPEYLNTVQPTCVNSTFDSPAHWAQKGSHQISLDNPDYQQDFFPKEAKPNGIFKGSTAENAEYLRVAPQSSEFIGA

[2] = biological target: EGFR Δ746-750/C797S mutant (Homo sapiens (Human), UniProt P00533, C797S/DEL746-750); assay: HotSpot radiometric kinase assay, EGFR Δ746-750/C797S; conditions: radiometric filter-binding, 10 μM ATP
Procedure: (§1) Biochemical Assays for Inhibition of Wild-Type and Mutant EGFRs
(§2) The inhibitory activities against EGFR WT, EGFR Δ752-759 mutant, EGFR Δ746-750/T790M mutant, EGFR Δ746-750/C797S mutant, EGFR Δ746-750/T790M/C797S mutant. […] Briefly, specific kinase/substrate pairs along with required cofactors were prepared in reaction buffer; 20 mM Hepes pH 7.5, 10 mM MgCl2, 1 mM EGTA, 0.02% Brij35, 0.02 mg/ml BSA, 0.1 mM Na3VO4, 2 mM DTT, 1% DMSO. Compounds were delivered into the reaction, followed ˜20 minutes later by addition of a mixture of ATP (Sigma, St. Louis MO) and ^33P ATP (Perkin Elmer, Waltham MA) to a final concentration of 10 μM. Reactions were carried out at room temperature for 120 min, followed by spotting of the reactions onto P81 ion exchange filter paper (Whatman Inc., Piscataway, NJ). Unbound phosphate was removed by extensive washing of filters in 0.75% phosphoric acid. […] IC50 values and curve fits were obtained using Prism (GraphPad Software).

[3] = biological target: EGFR Δ746-750/T790M mutant (Homo sapiens (Human), UniProt P00533, DEL746-750/T790M); assay: HotSpot radiometric kinase assay, EGFR Δ746-750/T790M; conditions: radiometric filter-binding, 10 μM ATP
Procedure: as §1, §2

[4] = biological target: EGFR Δ746-750/T790M/C797S mutant (Homo sapiens (Human), UniProt P00533, C797S/DEL746-750/T790M); assay: HotSpot radiometric kinase assay, EGFR Δ746-750/T790M/C797S; conditions: radiometric filter-binding, 10 μM ATP
Chain of EGFR Δ746-750/T790M/C797S mutant (P00533 other isoform, or with tags, fused parts or gaps T790M/C797S/del 1-668/del 746-750 limits assumed): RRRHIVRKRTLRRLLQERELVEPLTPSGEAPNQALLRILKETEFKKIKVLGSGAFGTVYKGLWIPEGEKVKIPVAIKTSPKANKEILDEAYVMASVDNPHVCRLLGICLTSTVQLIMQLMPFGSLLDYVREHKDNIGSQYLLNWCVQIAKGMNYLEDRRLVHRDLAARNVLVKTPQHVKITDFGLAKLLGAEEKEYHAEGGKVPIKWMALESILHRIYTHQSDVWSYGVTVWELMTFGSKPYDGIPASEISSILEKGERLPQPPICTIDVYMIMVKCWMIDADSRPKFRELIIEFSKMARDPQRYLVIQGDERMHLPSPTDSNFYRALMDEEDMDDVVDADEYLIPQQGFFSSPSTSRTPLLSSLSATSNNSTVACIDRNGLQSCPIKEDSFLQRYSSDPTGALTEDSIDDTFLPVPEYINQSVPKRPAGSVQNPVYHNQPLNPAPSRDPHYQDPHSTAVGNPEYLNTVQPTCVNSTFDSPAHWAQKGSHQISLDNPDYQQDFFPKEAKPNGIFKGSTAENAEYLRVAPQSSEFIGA
Procedure: as §1, §2

EGFR WT = EGFR WT (Homo sapiens (Human), UniProt P00533); assay: HotSpot radiometric kinase assay, EGFR WT; conditions: radiometric filter-binding, 10 μM ATP
Procedure: as §1, §2

Chain of EGFR L858R mutant (P00533 25-1210 L858R): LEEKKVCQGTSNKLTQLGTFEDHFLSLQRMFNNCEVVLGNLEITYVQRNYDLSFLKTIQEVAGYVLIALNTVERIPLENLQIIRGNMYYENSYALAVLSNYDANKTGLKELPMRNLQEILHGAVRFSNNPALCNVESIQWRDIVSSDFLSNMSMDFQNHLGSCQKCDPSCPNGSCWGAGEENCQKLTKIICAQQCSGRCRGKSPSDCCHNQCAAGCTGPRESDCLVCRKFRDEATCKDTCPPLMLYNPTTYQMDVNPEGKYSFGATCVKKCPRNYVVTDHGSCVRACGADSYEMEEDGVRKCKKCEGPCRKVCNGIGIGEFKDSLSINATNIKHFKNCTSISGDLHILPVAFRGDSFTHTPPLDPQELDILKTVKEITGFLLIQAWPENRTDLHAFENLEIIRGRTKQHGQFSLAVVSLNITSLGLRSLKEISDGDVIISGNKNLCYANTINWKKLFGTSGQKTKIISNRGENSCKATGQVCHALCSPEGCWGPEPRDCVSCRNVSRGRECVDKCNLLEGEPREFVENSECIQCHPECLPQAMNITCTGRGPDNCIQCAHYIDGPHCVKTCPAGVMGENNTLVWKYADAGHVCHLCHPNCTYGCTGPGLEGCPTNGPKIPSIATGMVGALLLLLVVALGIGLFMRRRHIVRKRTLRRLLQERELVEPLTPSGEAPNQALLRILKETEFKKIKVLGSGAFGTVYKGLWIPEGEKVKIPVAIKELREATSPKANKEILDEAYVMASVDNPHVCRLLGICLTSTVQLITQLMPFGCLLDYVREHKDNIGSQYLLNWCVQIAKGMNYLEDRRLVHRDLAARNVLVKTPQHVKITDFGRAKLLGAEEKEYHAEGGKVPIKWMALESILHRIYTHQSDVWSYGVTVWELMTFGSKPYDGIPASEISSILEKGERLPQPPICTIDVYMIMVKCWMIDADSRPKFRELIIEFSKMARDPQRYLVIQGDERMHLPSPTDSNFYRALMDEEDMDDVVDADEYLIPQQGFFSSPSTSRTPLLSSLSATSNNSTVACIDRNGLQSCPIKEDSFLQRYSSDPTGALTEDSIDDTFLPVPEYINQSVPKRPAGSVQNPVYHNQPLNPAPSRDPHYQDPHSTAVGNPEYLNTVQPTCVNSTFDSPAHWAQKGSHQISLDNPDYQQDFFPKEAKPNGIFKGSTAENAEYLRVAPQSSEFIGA

IC50 (EGFR L858R mutant): 374 nM
IC50 (EGFR L858R/C797S mutant): 1070 nM
IC50 (EGFR L858R/T790M mutant): 138 nM
IC50 [1]: 278 nM
IC50 (EGFR (Δ746-750)): 79 nM
IC50 [2]: 24.4 nM
IC50 [3]: 13.2 nM
IC50 [4]: 10.2 nM
IC50 (EGFR WT): 1050 nM
SMILES: Cn1ncc2c1OCCCOc1ccccc1/C=C/c1n[nH]c3ccc-2cc13 [Cpd. 3, (11E)-1-methyl-19,20-dihydro-1H,8H,18H-10,7,4-(ethan[1]yl[1,2]diylidene)pyrazolo[3,4-f][1,5,12,13]benzodioxadiazacyclooctadecine]
